Source: patent publication US12532887B2, “Method for controlling pests of potato plants” (BASF SE, priority 2018, dated 2026)
Read-outs that look alike come from different tables or passages of the source.

Key:
[1] = test system: Colorado Potato Beetle (CPB, Leptinotarsa decemlineata); assay: Colorado Potato Beetle dipping bioassay (foliar method) with potato plants; assay type: in vivo; conditions: for Activity against CPB by potato plant dipping assay / Feeding damage protection of potato plants, Feeding Protection (%) / Feeding damage protection of potato plants (%), Control corrected: 100 ppm; for Feeding damage protection of potato plants, Feeding Protection (%) / Feeding damage protection of potato plants (%), Control corrected / mortality at 100 ppm: leaf dipping, 2nd instar CPB, 5 days after infest; for mortality at 100 ppm: Leptinotarsa decemlineata, foliar, 120 h
Description: 2. Method: Colorado Potato Beetle (CPB, Leptinotarsa decemlineata) Dipping Bioassay (Foliar Method) with Potato Plants Serial dilutions of TGAI are made in 50:50 (acetone: H2O) 0.01% kinetic solvent solution. Potato plant true leaves are snipped off the plant, treated by dipping method in a bowl with acetone-resistant plastic liner and inserted into a glass flask filled with water of the stem part to prevent dehydration of the leaves. Leaves are air-dried in hood, and transferred to petri dishes preset with a filter paper soaked with 2.5 ml water. The leaves are infested with five 2nd instar CPB per dish. 6 replicates/treatment and one rate (100 ppm)/test analog. Petri dishes are held for 5 days after infest at a […], 50% RH and 14/10 light/dark cycle in walk-in chamber. Both plant feeding damage and mortality of CPB were evaluated.

[2] = test system: Colorado Potato beetle, Leptinotarsa decimlineata; assay: Field trial, foliar application on potato, feeding damage assessment; assay type: in vivo
Description: 1. Potato-Colorado Potato Beetle, Leptinotarsa decimlineata:
Foliar application: Field trials were set up. The plots were laid out in 5-meter rows with 4 replications. Applications of Compound I-R-1 was done. Feeding damage assessments were taken at 6, 15 and 20 days after application for the entire plot.

[3] = control corrected, read-out: Mortality of CPB (%), Control corrected
[4] = read-out: Mortality of CPB, Mortality (%)

SMILES: C[n+]1c([O-])c(-c2ccccc2)c(=O)n2c1SCC2c1cnc(Cl)s1 (racemic) [Compound (I)]
- Activity against CPB by potato plant dipping assay [1]: active
- Feeding damage protection of potato plants, Feeding Protection (%) [1]: 89.17%
- Feeding damage protection of potato plants (%), Control corrected ([1]; control corrected): 88.60%
- mortality at 100 ppm [1, 3]: 56.7%
- mortality at 100 ppm [1, 4]: 56.7%

SMILES: C[n+]1c([O-])c(-c2ccccc2)c(=O)n2c1SC[C@@H]2c1cnc(Cl)s1 [Compound (I-R-1)]
- Efficacy against L. decimlineata as foliar application in terms of reduction in feeding damage ([2]; foliar application (Table 2)): good efficacy
- Feeding damage (%) A06 ([2]; foliar treatment, 60 g ai/ha, 6 days after application, entire plot): 6.5%
- Feeding damage (%) A15 ([2]; foliar treatment, 60 g ai/ha, 15 days after application, entire plot): 5.0%
- Feeding damage (%) A20 ([2]; foliar treatment, 60 g ai/ha, 20 days after application, entire plot): 8.0%
- Activity against CPB by potato plant dipping assay [1]: active
- Feeding damage protection of potato plants, Feeding Protection (%) [1]: 90.83%
- Feeding damage protection of potato plants (%), Control corrected ([1]; control corrected): 90.40%
- mortality at 100 ppm [1, 3]: 80%
- mortality at 100 ppm [1, 4]: 80%

SMILES: C[n+]1c([O-])c(-c2ccccc2)c(=O)n2c1CCC2c1cnc(Cl)s1 (stereo not drawn) [Compound C-6, reference compound]
- Activity against CPB by potato plant dipping assay [1]: inactive
- Feeding damage protection of potato plants, Feeding Protection (%) [1]: 11.67%
- Feeding damage protection of potato plants (%), Control corrected ([1]; control corrected): 7.00%
- mortality at 100 ppm [1, 3]: 0%
- mortality at 100 ppm [1, 4]: 0%

SMILES: C[n+]1c([O-])c(-c2ccccc2)c(=O)n2c1OCC2c1cnc(Cl)s1 (stereo not drawn) [Compound C-19, reference compound]
- Activity against CPB by potato plant dipping assay [1]: inactive
- Feeding damage protection of potato plants, Feeding Protection (%) [1]: 5.00%
- Feeding damage protection of potato plants (%), Control corrected ([1]; control corrected): 0.00%
- mortality at 100 ppm [1, 3]: 3.33%
- mortality at 100 ppm [1, 4]: 3.33%
